Reference: patent US12692221B2 (priority 2024, dated 2026)

Tests used:
[1] = tested on: NMDA; experiment: Radioligand binding NMDA (antagonist radioligand), [^3H]CGP 39653, rat cerebral cortex
[2] = target: T1, MAO-A (Rattus norvegicus, UniProt P21396); experiment: Radioligand binding MAO-A (antagonist radioligand), [^3H]Ro 41-1049, rat cerebral cortex
T1 construct: from tissue; host or cells: rat cerebral cortex
T1 sequence (P21396 1-526): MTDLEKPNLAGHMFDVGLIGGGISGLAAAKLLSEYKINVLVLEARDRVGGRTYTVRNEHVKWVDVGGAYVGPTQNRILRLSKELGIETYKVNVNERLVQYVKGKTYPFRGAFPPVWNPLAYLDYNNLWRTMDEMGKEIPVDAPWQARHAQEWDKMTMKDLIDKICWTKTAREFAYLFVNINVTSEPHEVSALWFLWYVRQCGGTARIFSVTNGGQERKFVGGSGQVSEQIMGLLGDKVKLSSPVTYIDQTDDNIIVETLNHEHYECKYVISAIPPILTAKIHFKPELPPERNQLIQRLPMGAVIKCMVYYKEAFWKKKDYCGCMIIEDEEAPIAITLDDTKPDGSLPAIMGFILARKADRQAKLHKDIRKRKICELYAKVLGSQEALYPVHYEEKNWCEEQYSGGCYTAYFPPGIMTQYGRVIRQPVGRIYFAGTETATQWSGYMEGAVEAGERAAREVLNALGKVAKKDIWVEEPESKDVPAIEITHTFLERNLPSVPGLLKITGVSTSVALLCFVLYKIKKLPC

[3] = target: T2, μ (MOP) (h) (Homo sapiens, UniProt P35372); experiment: Radioligand binding μ (MOP) (h) (agonist radioligand), [^3H]DAMGO, HEK-293 cells
T2 construct: expressed in transfected cells; host or cells: HEK-293 cells
Description: (§1) Methods—Binding Assays: In vitro binding assays were performed using human recombinant receptors expressed in mammalian cell lines. Receptors were expressed in either HEK-293 or CHO cells depending on the target, and assay conditions (radioligand, concentration, nonspecific competitor, temperature, and incubation time) were optimized for each receptor. All assays were conducted in triplicate, and specific binding was quantified by scintillation counting as the detection method for each listed assay.
(§2) Specific binding was expressed as a percentage of control-specific binding, and percent inhibition was calculated using the formula in Ex. 8 above. Half-maximal inhibitory concentrations (IC50) were determined by non-linear regression analysis of the inhibition curves using the Hill equation (see Ex. 8). Inhibition constants (Ki) were calculated using the Cheng-Prusoff equation (see Ex. 8). KD values used in these calculations had been previously established for each receptor under the assay conditions (see Table 6). Data analysis was performed using software developed at Cerep and validated against SigmaPlot 4.0 for Windows.

[4] = target: T3, 5-HT1A (h) (Homo sapiens, UniProt P08908); experiment: Radioligand binding 5-HT1A (h) (agonist radioligand), [^3H]8-OH-DPAT, HEK-293 cells
T3 construct: expressed in transfected cells; host or cells: HEK-293 cells
T3 sequence (P08908 1-422): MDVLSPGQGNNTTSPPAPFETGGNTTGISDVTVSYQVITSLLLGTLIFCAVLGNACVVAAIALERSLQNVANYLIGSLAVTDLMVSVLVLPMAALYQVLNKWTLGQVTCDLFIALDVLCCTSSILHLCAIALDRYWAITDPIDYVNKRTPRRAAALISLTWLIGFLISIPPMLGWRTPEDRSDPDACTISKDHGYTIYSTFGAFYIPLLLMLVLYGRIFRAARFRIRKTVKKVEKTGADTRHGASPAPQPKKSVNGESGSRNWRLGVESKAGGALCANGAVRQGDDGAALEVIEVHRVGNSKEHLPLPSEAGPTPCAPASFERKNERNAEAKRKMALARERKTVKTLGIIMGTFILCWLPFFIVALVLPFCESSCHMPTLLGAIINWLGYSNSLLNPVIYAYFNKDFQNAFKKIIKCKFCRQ
Description: as §1, §2

[5] = target: T4, AR (h) (Homo sapiens, UniProt P10275, T878A); experiment: Radioligand binding AR (h) (agonist radioligand), [^3H]methyltrienolone, LNCaP cells
T4 construct: human endog; endogenous in cells; host or cells: LNCaP cells
T4 sequence (P10275 1-920 T878A): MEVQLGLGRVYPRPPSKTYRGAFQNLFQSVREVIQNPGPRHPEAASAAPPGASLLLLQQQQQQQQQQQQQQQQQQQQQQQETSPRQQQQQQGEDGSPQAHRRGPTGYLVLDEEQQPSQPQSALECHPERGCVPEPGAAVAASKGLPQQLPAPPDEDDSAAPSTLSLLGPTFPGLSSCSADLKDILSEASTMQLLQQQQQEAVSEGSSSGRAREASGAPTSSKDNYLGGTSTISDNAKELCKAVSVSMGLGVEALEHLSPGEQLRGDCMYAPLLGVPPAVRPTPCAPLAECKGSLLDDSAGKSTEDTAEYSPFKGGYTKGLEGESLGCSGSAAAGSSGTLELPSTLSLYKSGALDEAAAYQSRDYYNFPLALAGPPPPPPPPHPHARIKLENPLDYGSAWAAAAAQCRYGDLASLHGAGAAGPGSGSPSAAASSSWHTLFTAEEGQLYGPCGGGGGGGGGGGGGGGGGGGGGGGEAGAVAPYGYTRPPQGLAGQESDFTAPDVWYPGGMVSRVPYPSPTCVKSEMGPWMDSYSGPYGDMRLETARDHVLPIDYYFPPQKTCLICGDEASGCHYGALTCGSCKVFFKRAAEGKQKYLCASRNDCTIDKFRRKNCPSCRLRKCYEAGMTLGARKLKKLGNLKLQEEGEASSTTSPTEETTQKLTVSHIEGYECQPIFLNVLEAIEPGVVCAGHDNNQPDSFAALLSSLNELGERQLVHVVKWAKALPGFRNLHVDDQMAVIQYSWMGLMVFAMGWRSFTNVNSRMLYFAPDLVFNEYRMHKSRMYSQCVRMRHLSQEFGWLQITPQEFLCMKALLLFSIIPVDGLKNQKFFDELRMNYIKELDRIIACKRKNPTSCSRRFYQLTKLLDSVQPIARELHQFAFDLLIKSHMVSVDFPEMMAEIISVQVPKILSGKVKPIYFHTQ

[6] = target: COX1(h) (Homo sapiens, UniProt P23219); experiment: Enzyme assay COX1(h), arachidonic acid + ADHP, fluorimetry; assay type: biochemical
Description: Methods—Enzyme and Uptake Assays: In vitro enzyme and uptake assays were conducted by Eurofins Discovery using human recombinant enzymes expressed in various mammalian and insect cell lines. Enzymatic activity was measured using appropriate substrates or tracers under conditions optimized for each target, as detailed in Table 7. Reactions were incubated at room temperature for a defined duration and terminated according to established protocols. The measured components (either enzymatic products or remaining substrate) were quantified using fluorimetry, photometry, scintillation counting, or LANCE technology, depending on the assay. Assay-specific parameters, including substrate identity, cell line source, incubation time, and detection method, are provided in Table 7.
All measurements were performed in technical replicates to ensure reproducibility and data quality.
Results were expressed both as a percentage of control-specific activity and as percent inhibition of control-specific activity. Percent activity was calculated as (measured specific activity/control specific activity)×100, and percent inhibition as 100−[(measured specific activity/control specific activity)×100], based on values obtained in the presence of test compounds. IC50 and EC50 values, along with Hill coefficients (nH), were determined by nonlinear regression analysis of inhibition or concentration-response curves generated from mean replicate values. Hill curve fitting was performed as previously described using software developed at Cerep and validated against SigmaPlot® 4.0 for Windows® (© 1997 by SPSS Inc.).

COX1(h), sequence (P23219 24-599): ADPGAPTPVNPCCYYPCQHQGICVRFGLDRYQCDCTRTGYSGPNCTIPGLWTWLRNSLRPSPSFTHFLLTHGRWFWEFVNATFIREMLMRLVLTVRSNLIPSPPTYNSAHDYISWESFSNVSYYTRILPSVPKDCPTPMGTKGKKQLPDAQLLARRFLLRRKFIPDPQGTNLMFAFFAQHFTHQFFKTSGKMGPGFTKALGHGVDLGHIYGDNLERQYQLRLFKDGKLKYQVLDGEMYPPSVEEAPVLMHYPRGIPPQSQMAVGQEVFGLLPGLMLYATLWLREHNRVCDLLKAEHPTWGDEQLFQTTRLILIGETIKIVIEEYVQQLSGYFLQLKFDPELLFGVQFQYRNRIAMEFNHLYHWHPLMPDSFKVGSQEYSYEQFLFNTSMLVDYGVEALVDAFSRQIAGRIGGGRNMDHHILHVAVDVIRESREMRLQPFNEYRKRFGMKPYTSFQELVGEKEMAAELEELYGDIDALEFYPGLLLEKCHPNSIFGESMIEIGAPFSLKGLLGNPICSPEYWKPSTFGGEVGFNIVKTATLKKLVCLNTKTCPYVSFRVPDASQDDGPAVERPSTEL
T2 sequence (P35372 whole entry): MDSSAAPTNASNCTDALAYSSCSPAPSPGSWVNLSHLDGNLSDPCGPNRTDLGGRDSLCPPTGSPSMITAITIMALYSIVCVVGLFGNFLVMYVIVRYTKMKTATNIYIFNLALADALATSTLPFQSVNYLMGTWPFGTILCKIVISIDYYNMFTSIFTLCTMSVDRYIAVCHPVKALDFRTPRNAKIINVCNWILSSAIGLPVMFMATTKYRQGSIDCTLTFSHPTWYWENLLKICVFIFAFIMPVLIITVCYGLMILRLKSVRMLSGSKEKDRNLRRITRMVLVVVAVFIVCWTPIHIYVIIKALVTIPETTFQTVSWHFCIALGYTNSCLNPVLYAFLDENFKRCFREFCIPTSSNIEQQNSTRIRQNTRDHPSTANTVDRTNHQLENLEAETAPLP

Compound: COCCc1cc(CCN)c(OC)cc1Br [Compound 2CB-5ME, reference compound]
- Mean Percent Inhibition of Control Specific Binding [1]: 3.5%
- Mean Percent Inhibition of Control Specific Binding [2]: 5.4%
- Mean Percent Inhibition of Control Specific Binding [3]: 28.6%
- Mean Percent Inhibition of Control Specific Binding [4]: 98.2%
- Mean Percent Inhibition of Control Specific Binding [5]: −7.7%
- Mean Percent Inhibition of Control Specific Binding [6]: −4.7%

Compound: COCc1cc(CCN)c(OC)cc1CC(C)C [Compound 2CiBu-5MM, 2-[4-isobutyl-2-methoxy-5-(methoxymethyl)phenyl]ethanamine]
- Mean Percent Inhibition of Control Specific Binding [1]: 12.0%
- Mean Percent Inhibition of Control Specific Binding [2]: 4.1%
- Mean Percent Inhibition of Control Specific Binding [3]: 31.5%
- Mean Percent Inhibition of Control Specific Binding [4]: 76.5%
- Mean Percent Inhibition of Control Specific Binding [5]: 3.0%
- Mean Percent Inhibition of Control Specific Binding [6]: 13.8%

Compound: COCc1cc(CCN)c(O)cc1CC(C)C [2CiBu-2OH-5MM, 2-(2-aminoethyl)-5-isobutyl-4-(methoxymethyl)phenol]
- Mean Percent Inhibition of Control Specific Binding [1]: −24.3%
- Mean Percent Inhibition of Control Specific Binding [2]: 7.0%
- Mean Percent Inhibition of Control Specific Binding [3]: 24.4%
- Mean Percent Inhibition of Control Specific Binding [4]: 34.8%
- Mean Percent Inhibition of Control Specific Binding [5]: −9.9%
- Mean Percent Inhibition of Control Specific Binding [6]: −37.4%

Compound: COCc1cc(CCN)c(OC)cc1Br [Compound 2CB-5MM, 2-(4-bromo-2-methoxy-5-(methoxymethyl)phenyl)ethan-1-amine]
- Mean Percent Inhibition of Control Specific Binding [1]: 4.7%
- Mean Percent Inhibition of Control Specific Binding [2]: 9.3%
- Mean Percent Inhibition of Control Specific Binding [3]: 31.1%
- Mean Percent Inhibition of Control Specific Binding [4]: 95.1%
- Mean Percent Inhibition of Control Specific Binding [5]: −9.2%
- Mean Percent Inhibition of Control Specific Binding [6]: 0.3%
